Values after ≈ are worked out from the molar mass of the structure shown.
Columns and labels:
[1] = system: A. fumigatus AF294; assay: EUCAST broth microdilution growth inhibition (OD 530 nm, 384-well); assay type: cell-based; details: Aspergillus fumigatus, strain AF294 (ITC-susceptible), 48 h
Method: (§1) The antifungal activities of the test compounds against A. fumigatus strains (itraconazole [ITC]-susceptible strains NCPF2010, AF294, and AF293; ITC-resistant strains AF72 and AF91) were calculated from growth curves generated by spectrophotometric analysis and compared to the activities against positive and negative controls.

[2] = system: A. fumigatus AF91; assay: as above; assay type: cell-based; details: Aspergillus fumigatus, strain AF91 (ITC-resistant), 48 h
Method: as §1

[3] = system: A. fumigatus NCPF2010; assay: as above; assay type: cell-based; details: Aspergillus fumigatus, strain NCPF2010 (ITC-susceptible), 48 h, range tested 0.002 to 1 μg/ml
Method: as §1

[4] = system: A. fumigatus AF293; assay: as above; assay type: cell-based; details: Aspergillus fumigatus, strain AF293 (ITC-susceptible), 48 h
Method: as §1

[5] = system: A. fumigatus AF72; assay: as above; assay type: cell-based; details: Aspergillus fumigatus, strain AF72 (ITC-resistant), 48 h
Method: as §1

[6] = system: A. fumigatus (ATCC 13073 [strain NIH 5233]); assay: MIC against the strain used in vivo; assay type: cell-based; details: Aspergillus fumigatus, ATCC13073; strain ATCC 13073; read-out: MIC
[7] = system: A. fumigatus isolates; design: method as in PMID 12202554; details: MFC = lowest dilution yielding less than 3 colonies; cited from earlier work

IC50 [1]	IC90 [1]	IC50 [2]	IC90 [2]	IC50 [3]	IC90 [3]	IC50 [4]	IC90 [4]	IC50 [5]	IC90 [5]	SMILES	MIC [6]	range of MFCs for inhibition of 90% of isolates tested (MFC90) [7]
0.21 µg/mL (≈ 0.227 µM)	0.79 µg/mL (≈ 0.855 µM)	0.28 µg/mL (≈ 0.303 µM)	0.75 µg/mL (≈ 0.812 µM)	0.2 µg/mL (≈ 0.216 µM)	0.62 µg/mL (≈ 0.671 µM)	0.24 µg/mL (≈ 0.26 µM)	0.85 µg/mL (≈ 0.92 µM)	0.12 µg/mL (≈ 0.13 µM)	0.42 µg/mL (≈ 0.455 µM)	C[C@@H]1[C@H](O)[C@@H](C)/C=C/C=C/C=C/C=C/C=C/C=C/C=C/[C@H](O[C@@H]2O[C@H](C)[C@@H](O)[C@H](N)[C@@H]2O)C[C@@H]2O[C@](O)(C[C@@H](O)C[C@@H](O)[C@H](O)CC[C@@H](O)C[C@@H](O)CC(=O)O[C@H]1C)C[C@H](O)[C@H]2C(=O)O [Amphotericin B, amphotericin B]		
> 1 µg/mL	> 1 µg/mL	0.11 µg/mL (≈ 0.101 µM)	> 1 µg/mL	0.065 µg/mL (≈ 0.0595 µM)	> 1 µg/mL	> 1 µg/mL	> 1 µg/mL	0.065 µg/mL (≈ 0.0595 µM)	> 1 µg/mL	CC[C@H](C)C[C@H](C)CCCCCCCCC(=O)N[C@H]1C[C@@H](O)[C@@H](NCCN)NC(=O)[C@@H]2[C@@H](O)CCN2C(=O)[C@H]([C@H](O)CCN)NC(=O)[C@H]([C@H](O)[C@@H](O)c2ccc(O)cc2)NC(=O)[C@@H]2C[C@@H](O)CN2C(=O)[C@H]([C@@H](C)O)NC1=O [Caspofungin, caspofungin]		

SMILES	IC50 [1]	IC90 [1]	IC50 [2]	IC90 [2]	IC50 [3]	IC90 [3]	IC50 [4]	IC90 [4]	IC50 [5]	IC90 [5]	MIC [6]	range of MFCs for inhibition of 90% of isolates tested (MFC90) [7]
CCC(C)n1ncn(-c2ccc(N3CCN(c4ccc(OCC5COC(Cn6cncn6)(c6ccc(Cl)cc6Cl)O5)cc4)CC3)cc2)c1=O (centres unmarked) [Itraconazole, itraconazole]	0.041 µg/mL (≈ 0.0581 µM)	0.052 µg/mL (≈ 0.0737 µM)	0.22 µg/mL (≈ 0.312 µM)	> 1 µg/mL	0.037 µg/mL (≈ 0.0524 µM)	0.054 µg/mL (≈ 0.0765 µM)	0.032 µg/mL (≈ 0.0453 µM)	0.23 µg/mL (≈ 0.326 µM)	0.31 µg/mL (≈ 0.439 µM)	> 1 µg/mL	0.5 µg/mL (≈ 0.709 µM)	0.2 to 4 µg/mL

Reference: paper PMC5923123, “In Vitro and In Vivo Efficacy of a Novel and Long-Acting Fungicidal Azole, PC1244, on Aspergillus fumigatus Infection” (Antimicrobial Agents and Chemotherapy, 2018)
